Results from patent US20230407296A1, “Method to Regulate ALOX12-AS1 IncRNA-Mediated Alteration of ALOX12 Protein and to Screen for Novel Drugs to Alter ALOX12 Protein Level” (priority 2021, published 2023).

What was measured:
[1] = test system: ALOX12 protein level in HEK293 cells; assay: ALOX12 protein level in HEK293 cells (immunoblot); type: cell-based, human; conditions: HEK293 cells, 10 μM TPA, 1 hour, vs vehicle
Protocol: As an alternative approach, multiple isoform-specific oligonucleotides (ASOs) complementary to different regions of ALOX12-AS1-201/202 were designed (FIG. 7A-C).
Relative quantification of proteins was performed as described previously [35, 106]. The cell lysates were prepared in 1×RIPA lysis and extraction buffer (catalogue number: 89900, ThermoFisher Scientific) supplemented with 1× Halt protease and phosphatase inhibitor cocktail (catalogue number: 78441, ThermoFisher Scientific). The protein lysates were denatured in Laemmli buffer containing 2% SDS, 10% glycerol, 0.002% bromophenol blue, 0.75 M Tris-HCl pH 6.8, and 100 mM DTT. The immunoblots were imaged using a ChemiDoc XRS+ system (Bio-Rad) and band intensities were quantified using ImageJ (version 1.48) Software [107]. Due to the possibility of inconsistency in the relative expression of housekeeping genes, we normalized all proteins of interest based on the intensity of the Oriole-stained protein profile [92].

ALOX12 AS1-201 = assay: Multiplex RT-PCR of ALOX12-AS1-201 in TPA-treated THP-1 derived MLCs; type: cell-based, human; conditions: TPA treated (72 hours) MLCs vs vehicle treated THP-1 cells
Protocol: (§1) Phorbol ester (12-O-Tetradecanoylphorbol 13-acetate: TPA) is an activator of protein kinase C (PKC) that has been frequently used for inducing the differentiation of different cell types, including myeloid cells. Activation of human monocytic cells affects ALOX expression. Therefore, we induced differentiation of monocytic THP-1 cells to macrophage-like cells (MLCs) with 100 nM TPA [91, 92] and monitored the ALOX12 protein level as well as nucleo-cytoplasmic translocation of ALOX12-AS1-201. […] We concurrently monitored expression of the integrin subunit a M (ITGAM), also known as CD11b, which regulates myeloid cell polarization and is expressed in macrophages to facilitate adhesion, migration, chemotaxis, and accumulation during inflammation. […]
(§2) Total RNA from different cell lines was extracted with Trizol reagent (Catalog number: 15596026; ThermoFisher Scientific, Canada) as per the manufacturer's recommended protocol. […] Absolute quantification of ALOX12-AS1 lncRNA isoforms was performed in a Mastercycler®ep realplex real-time PCR system (Eppendorf, Hamburg, Germany) using SYBR green dye (Catalog number: S7563; ThermoFisher Scientific). […] Real-time PCR data quality control calculations were determined by the SAS program as described previously and the calculated PCR efficiency was between 95%-99%. […] Results were expressed as copy number of specific isoforms per 100 ng of total RNA.

ALOX12 mRNA = conditions: A431 cells, time-dependent; cited from earlier work
ALOX12-AS1-202 = assay: Multiplex RT-PCR of ALOX12-AS1-202 in TPA-treated THP-1 derived MLCs; type: cell-based, human; conditions: TPA treated (72 hours) MLCs vs vehicle treated THP-1 cells
Protocol: as §1, §2

ALOX12-AS1-201 lncRNA = assay: Nucleo-cytoplasmic translocation of ALOX12-AS1-201 in THP-1 cells (FISH, fractionation, quantitative RT-PCR); type: cell-based, human
Protocol: Therefore, we induced differentiation of monocytic THP-1 cells to macrophage-like cells (MLCs) with 100 nM TPA [91, 92] and monitored the ALOX12 protein level as well as nucleo-cytoplasmic translocation of ALOX12-AS1-201. […] Based on these observations, we performed nuclear and cytoplasmic fractionation at 72 hours of TPA treatment.
Total RNA from different cell lines was extracted with Trizol reagent (Catalog number: 15596026; ThermoFisher Scientific, Canada) as per the manufacturer's recommended protocol. Total RNA (1-5 μg) was treated with RNase-free DNase I (Catalog number: M0303, New England Biolabs Inc., USA) at 37° C. for 15 min, subsequently heat-inactivated at 75° C. for 10 min and used for cDNA synthesis. […] Absolute quantification of ALOX12-AS1 lncRNA isoforms was performed in a Mastercycler®ep realplex real-time PCR system (Eppendorf, Hamburg, Germany) using SYBR green dye (Catalog number: S7563; ThermoFisher Scientific). […] Real-time PCR data quality control calculations were determined by the SAS program as described previously [101] and the calculated PCR efficiency was between 95%-99%. Quantitative RT-PCR was conducted for different cell-line derived RNAs, and the specificity of each amplified product was confirmed by melting curve analysis. Results were expressed as copy number of specific isoforms per 100 ng of total RNA.

ALOX12 = ALOX12 catalytic activity in cell lysates (12S-HETE ELISA); type: biochemical, human; conditions: lysate of TPA-induced MLC, 50 μM arachidonic acid, 15 min, 37° C.; vehicle THP-1 lysate ~6 ng
Text: We measured ALOX12 enzyme activity of THP-1 and TPA-induced MLC cell lysates and compared them to establish the biological relevance of lncRNA-mediated downregulation of ALOX12 protein level. We used a cell-free system to avoid any limitations of intracellular arachidonic acid uptake by an in vitro cell-based system. As well, we used a platelet-derived protein-lysate as a positive control for ALOX12 enzyme activity. ALOX12 was originally discovered and characterized as an arachidonic acid peroxidizing enzyme in platelets.
ALOX12 catalytic activity was measured in a cell-free system using cell lysates derived from unactivated human platelets (positive control) and Phorbol ester (12-O-Tetradecanoylphorbol 13-acetate: TPA)/vehicle (DMSO/ethanol)-treated THP-1. ALOX12 converts arachidonate to the bioactive lipid 12(S)-hydroperoxyeicosatetraenoate (12S-HpETE). […] The cell lysates prepared in 1×PBS supplemented with 0.5% NP40, 1× Halt protease and phosphatase inhibitor cocktail 1 were incubated with 50 μM arachidonic acid (catalogue number: A0781, Tokyo Chemical Industry, USA) for 15 min at 37° C. and the amount of 12S-HETE was quantitatively measured using a commercially available Enzyme-Linked ImmunoAssay (ELISA) kit (catalogue number: ADI-900-050, Enzo Life Sciences Inc., USA) as per the manufacturer's instructions. […]

[2] = test system: ALOX12 protein level in THP-1 cells; assay: ALOX12 protein level in TPA-treated THP-1 cells (immunoblot); type: cell-based, human
Protocol: Phorbol ester (12-O-Tetradecanoylphorbol 13-acetate: TPA) is an activator of protein kinase C (PKC) that has been frequently used for inducing the differentiation of different cell types, including myeloid cells. Activation of human monocytic cells affects ALOX expression. Therefore, we induced differentiation of monocytic THP-1 cells to macrophage-like cells (MLCs) with 100 nM TPA [91, 92] and monitored the ALOX12 protein level as well as nucleo-cytoplasmic translocation of ALOX12-AS1-201. […] We concurrently monitored expression of the integrin subunit a M (ITGAM), also known as CD11b, which regulates myeloid cell polarization and is expressed in macrophages to facilitate adhesion, migration, chemotaxis, and accumulation during inflammation. […] CD68 is a transmembrane glycoprotein that is mainly located in the endosomal/lysosomal compartment but can rapidly shuttle to the cell surface in myeloid cells. […] Based on these observations, we performed nuclear and cytoplasmic fractionation at 72 hours of TPA treatment.
Relative quantification of proteins was performed as described previously. […] The immunoblots were imaged using a ChemiDoc XRS+ system (Bio-Rad) and band intensities were quantified using ImageJ (version 1.48) Software. […]

For `CCCCCCCCCCCCCC(=O)O[C@@H]1[C@@H](C)[C@@]2(O)[C@@H](C=C(CO)C[C@]3(O)C(=O)C(C)=C[C@@H]23)[C@@H]2C(C)(C)[C@]12OC(C)=O` [TPA, 12-O-Tetradecanoylphorbol 13-acetate], the ALOX12 protein level [1] is given as “significant reduction”, the “ALOX12 AS1-201 level” value (ALOX12 AS1-201) is given as “relatively unaltered” and the “expression of ALOX12 mRNA” value (ALOX12 mRNA) is given as “increased”. The ALOX12-AS1-202 level (ALOX12-AS1-202) was “dramatic reduction”, the “time to translocation of ALOX12-AS1-201 lncRNA to the cytosol” value (ALOX12-AS1-201 lncRNA; THP-1 cells, 100 nM TPA, FISH) was at most 1 h and the ALOX12-AS1-201 cytosolic abundance (ALOX12-AS1-201 lncRNA; TPA-differentiated MLCs, 72 hours, vs vehicle (DMSO) treated THP-1 cells, quantitative RT-PCR) was “significant increase”. The 12S-HETE production (ALOX12) was about 1.3 ng, the ALOX12 protein levels ([2]; THP-1 cells, 100 nM TPA, treatment period 1-72 h, immunoblot) was “dramatically reduced” and the ALOX12 protein levels ([2]; TPA-differentiated MLCs, 100 nM, 72 hours, vs vehicle (DMSO) treated THP-1 cells) was “concomitant decrease”.
